Experimental data as given in patent US9149475B2, “Protein kinase C inhibitors and uses thereof” (Rigel Pharmaceuticals, Inc., priority 2009, dated 2015).

test system: Human primary T cells; assay: IL-2 ELISA, human primary T cell, anti-CD3+CD28+ (whole cell assay); format: cell-based; conditions: Homo sapiens, T-cell, 24 h, human primary T cells stimulated with anti-CD3 + anti-CD28, 24 hours
Procedure, shortened: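 PBMC-derived T cells, pre-expanded on αCD3/αCD28 with IL-2 and then washed free of IL-2, were preincubated with compound for 1 hr at 37° C (100,000 cells/well). They were then stimulated on 1 μg/ml αCD3 plus 5 μg/ml αCD28 for 24 h, and supernatant IL-2 was measured by ELISA. The counter-assay used 0.5 ng/ml PMA plus 0.1 μM ionomycin instead.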

Question: `CC1(C)CC(Nc2nc(Nc3ccc(Oc4cccnc4)c(C(F)(F)F)c3)ncc2F)CC(C)(C)N1` [Compound I-59, 5-fluoro-N2-(3-(trifluoromethyl)-4-(pyridin-3-yloxy)phenyl)-N4-(2,2,6,6-tetramethylpiperidin-4-yl)pyrimidine-2,4-diamine] was tested. Which IC50 did it give?
Answer: > 1000 nM

Question: Which IC50 does the source give for `CC1(C)CC(Nc2nc(Nc3ccc(OCCN4CCCC4)c(OC(F)F)c3)ncc2F)CC(C)(C)N1` [Compound I-60, N2-(4-(2-(pyrrolidin-1-yl)ethoxy)-3-(difluoromethoxy)phenyl)-5-fluoro-N4-(2,2,6,6-tetramethylpiperidin-4-yl)pyrimidine-2,4-diamine] here?
Answer: 500 to 1000 nM

Question: For `CN1C(C)(C)CC(Nc2nc(Nc3ccc(Oc4cccnc4)c(C(F)(F)F)c3)ncc2F)CC1(C)C` [Compound I-61, 5-fluoro-N2-(3-(trifluoromethyl)-4-(pyridin-3-yloxy)phenyl)-N4-(1,2,2,6,6-pentamethylpiperidin-4-yl)pyrimidine-2,4-diamine], which IC50 is on record?
Answer: 500 to 1000 nM

Question: `CN1C(C)(C)CC(Nc2nc(Nc3ccc(Oc4ccncc4)c(C(F)(F)F)c3)ncc2F)CC1(C)C` [Compound I-62, 5-fluoro-N2-(3-(trifluoromethyl)-4-(pyridin-4-yloxy)phenyl)-N4-(1,2,2,6,6-pentamethylpiperidin-4-yl)pyrimidine-2,4-diamine] was tested. Which IC50 did it give?
Answer: > 1000 nM

Question: With `CC1(C)CC(Nc2nc(Nc3ccc(-c4cccnc4)c(OC(F)F)c3)ncc2F)CC(C)(C)N1` [Compound I-63, N2-(3-(difluoromethoxy)-4-(pyridin-3-yl)phenyl)-5-fluoro-N4-(2,2,6,6-tetramethylpiperidin-4-yl)pyrimidine-2,4-diamine] as the compound, how does the IC50 read?
Answer: 250 to 500 nM

Question: With `CN1C(C)(C)CC(Nc2nc(Nc3ccc(-c4cccnc4)c(OC(F)F)c3)ncc2F)CC1(C)C` [Compound I-64, N2-(3-(difluoromethoxy)-4-(pyridin-3-yl)phenyl)-5-fluoro-N4-(1,2,2,6,6-pentamethylpiperidin-4-yl)pyrimidine-2,4-diamine] as the compound, how does the IC50 read?
Answer: < 250 nM

Question: How did the IC50 turn out when `CC1(C)CC(Nc2nc(Nc3ccc(OCCN4CCOCC4)c(C(F)(F)F)c3)ncc2F)CC(C)(C)N1` [Compound I-65, N2-(4-(2-morpholinoethoxy)-3-(trifluoromethyl)phenyl)-5-fluoro-N4-(2,2,6,6-tetramethylpiperidin-4-yl)pyrimidine-2,4-diamine] was run?
Answer: 500 to 1000 nM

Question: With `CC1(C)CC(Nc2nc(Nc3ccc(OCCCN4CCOCC4)c(OC(F)F)c3)ncc2F)CC(C)(C)N1CC(F)(F)F` [Compound I-66, N2-(4-(3-morpholinopropoxy)-3-(difluoromethoxy)phenyl)-5-fluoro-N4-(1-(2,2,2-trifluoroethyl)-2,2,6,6-tetramethylpiperidin-4-yl)pyrimidine-2,4-diamine] as the compound, how does the IC50 read?
Answer: > 1000 nM

same assay, conditions: human primary T cells stimulated with anti-CD3 + anti-CD28, 24 hours

Question: `CC1(C)CC(Nc2nc(Nc3ccc(F)c(-n4cnnn4)c3)ncc2C(N)=O)CC(C)(C)N1` [Compound I-67, 5-aminocarbonyl-N2-[4-fluoro-3-(1H-tetrazol-1-yl)]phenyl-N4-(2,2,6,6-tetramethylpiperidin-4-yl)-2,4-pyrimidinediamine] was tested. Which IC50 did it give?
Answer: > 1000 nM

Question: Which IC50 does the source give for `CCOc1ccc(Nc2ncc(C(N)=O)c(NC3CC(C)(C)NC(C)(C)C3)n2)cc1-n1nnnc1CC` [Compound I-68, 5-aminocarbonyl-N2-[4-ethoxy-3-(5-ethyl-1H-tetrazol-1-yl)]phenyl-N4-(2,2,6,6-tetramethylpiperidin-4-yl)-2,4-pyrimidinediamine] here?
Answer: > 1000 nM

Question: With `CN1C(C)(C)CC(Nc2nc(Nc3cccc(-n4nnnc4SCC(F)(F)F)c3)ncc2F)CC1(C)C` [Compound I-69, 5-fluoro-N4-(1,2,2,6,6-pentamethylpiperidin-4-yl)-N2-{3-[5-(2,2,2-trifluoroethyl)thio]-1H-tetrazol-1-yl}phenyl-2,4-pyrimidinediamine] as the compound, how does the IC50 read?
Answer: < 250 nM

Question: How did the IC50 turn out when `CC1(C)CC(Nc2nc(Nc3cccc(-n4nnnc4SCC(F)(F)F)c3)ncc2F)CC(C)(C)N1` [Compound I-70, 5-fluoro-N4-(2,2,6,6-tetramethylpiperidin-4-yl)-N2-{3-[5-(2,2,2-trifluoroethyl)thio]-1H-tetrazol-1-yl}phenyl-2,4-pyrimidinediamine] was run?
Answer: < 250 nM

Question: For `CN1C(C)(C)CC(Nc2nc(Nc3cccc(-n4nnnc4SCC(F)(F)F)c3)ncc2C(N)=O)CC1(C)C` [Compound I-71, 5-aminocarbonyl-N4-(1,2,2,6,6-pentamethylpiperidin-4-yl)-N2-{3-[5-(2,2,2-trifluoroethyl)thio]-1H-tetrazol-1-yl}phenyl-2,4-pyrimidinediamine], which IC50 is on record?
Answer: 250 to 500 nM

Question: `CC1(C)CC(Nc2nc(Nc3cccc(-n4nnnc4SCC(F)(F)F)c3)ncc2C(N)=O)CC(C)(C)N1` [Compound I-72, 5-aminocarbonyl-N4-(2,2,6,6-tetramethylpiperidin-4-yl)-N2-{3-[5-(2,2,2-trifluoroethyl)thio]-1H-tetrazol-1-yl}phenyl-2,4-pyrimidinediamine] was tested. Which IC50 did it give?
Answer: > 1000 nM

Question: For `CN1C(C)(C)CC(Nc2nc(Nc3ccc(F)c(-n4cnnn4)c3)ncc2C#N)CC1(C)C` [Compound I-73, 5-cyano-N2-[4-fluoro-3-(1H-tetrazol-1-yl)]phenyl-N4-(1,2,2,6,6-pentamethylpiperidin-4-yl)-2,4-pyrimidinediamine], which IC50 is on record?
Answer: < 250 nM

Question: How did the IC50 turn out when `CCCc1nnnn1-c1cc(Nc2ncc(F)c(NC3CC(C)(C)NC(C)(C)C3)n2)ccc1OC` [Compound I-74, 5-fluoro-N2-[4-methoxy-3-(5-propyl-1H-tetrazol-1-yl)]phenyl-N4-(2,2,6,6-tetramethylpiperidin-4-yl)-2,4-pyrimidinediamine] was run?
Answer: < 250 nM

Question: With `CCCc1nnnn1-c1cc(Nc2ncc(C(N)=O)c(NC3CC(C)(C)N(C)C(C)(C)C3)n2)ccc1OC` [Compound I-75, 5-aminocarbonyl-N2-[4-methoxy-3-(5-propyl-1H-tetrazol-1-yl)]phenyl-N4-(1,2,2,6,6-pentamethylpiperidin-4-yl)-2,4-pyrimidinediamine] as the compound, how does the IC50 read?
Answer: 500 to 1000 nM

Question: Which IC50 does the source give for `CCCc1nnnn1-c1cc(Nc2ncc(C(N)=O)c(NC3CC(C)(C)NC(C)(C)C3)n2)ccc1OC` [Compound I-76, 5-aminocarbonyl-N2-[4-methoxy-3-(5-propyl-1H-tetrazol-1-yl)]phenyl-N4-(2,2,6,6-tetramethylpiperidin-4-yl)-2,4-pyrimidinediamine] here?
Answer: > 1000 nM

Question: How did the IC50 turn out when `CC1(C)CC(Nc2nc(Nc3ccc(F)c(-n4cnnn4)c3)ncc2C#N)CC(C)(C)N1` [Compound I-77, 5-cyano-N2-[4-fluoro-3-(1H-tetrazol-1-yl)]phenyl-N4-(2,2,6,6-tetramethylpiperidin-4-yl)-2,4-pyrimidinediamine] was run?
Answer: 250 to 500 nM

Question: For `CN1C(C)(C)CC(Nc2nc(Nc3cccc(-n4nnnc4SCC(F)(F)F)c3)ncc2C#N)CC1(C)C` [Compound I-78, 5-cyano-N4-(1,2,2,6,6-pentamethylpiperidin-4-yl)-N2-{3-[5-(2,2,2-trifluoroethyl)thio]-1H-tetrazol-1-yl}phenyl-2,4-pyrimidinediamine], which IC50 is on record?
Answer: < 250 nM

Question: For `CC1(C)CC(Nc2nc(Nc3cccc(-n4nnnc4SCC(F)(F)F)c3)ncc2C#N)CC(C)(C)N1` [Compound I-79, 5-cyano-N4-(2,2,6,6-tetramethylpiperidin-4-yl)-N2-{3-[5-(2,2,2-trifluoroethyl)thio]-1H-tetrazol-1-yl}phenyl-2,4-pyrimidinediamine], which IC50 is on record?
Answer: < 250 nM

Question: How did the IC50 turn out when `CCCc1nnnn1-c1cc(Nc2ncc(C#N)c(NC3CC(C)(C)N(C)C(C)(C)C3)n2)ccc1OC` [Compound I-80, 5-cyano-N2-[4-methoxy-3-(5-propyl-1H-tetrazol-1-yl)]phenyl-N4-(1,2,2,6,6-pentamethylpiperidin-4-yl)-2,4-pyrimidinediamine] was run?
Answer: < 250 nM

Question: How did the IC50 turn out when `CCCc1nnnn1-c1cc(Nc2ncc(C#N)c(NC3CC(C)(C)NC(C)(C)C3)n2)ccc1OC` [Compound I-81, 5-cyano-N2-[4-methoxy-3-(5-propyl-1H-tetrazol-1-yl)]phenyl-N4-(2,2,6,6-tetramethylpiperidin-4-yl)-2,4-pyrimidinediamine] was run?
Answer: 250 to 500 nM

Question: Which IC50 does the source give for `CCc1nnnn1-c1cc(Nc2ncc(C(N)=O)c(NC3CC(C)(C)NC(C)(C)C3)n2)ccc1OC(F)F` [Compound I-83, 5-aminocarbonyl-N2-[4-difluoromethoxy-3-(5-ethyl-1H-tetrazol-1-yl)]phenyl-N4-(2,2,6,6-tetramethylpiperidin-4-yl)-2,4-pyrimidinediamine] here?
Answer: > 1000 nM

Question: `CCc1nnnn1-c1cc(Nc2ncc(C#N)c(NC3CC(C)(C)NC(C)(C)C3)n2)ccc1OC(F)F` [Compound I-84, 5-cyano-N2-[4-difluoromethoxy-3-(5-ethyl-1H-tetrazol-1-yl)]phenyl-N4-(2,2,6,6-tetramethylpiperidin-4-yl)-2,4-pyrimidinediamine] was tested. Which IC50 did it give?
Answer: > 1000 nM

Question: For `CC1(C)CC(Nc2nc(Nc3cccc(-c4nnn[nH]4)c3)ncc2C#N)CC(C)(C)N1` [Compound I-85, 5-Cyano-N4-(2,2,6,6-tetramethylpiperidin-4-yl)-N2-[3-(tetrazol-5-yl)]phenyl-2,4-pyrimidinediamine], which IC50 is on record?
Answer: > 1000 nM

Question: For `CC(C)n1nnnc1-c1cccc(Nc2ncc(C#N)c(NC3CC(C)(C)N(C)C(C)(C)C3)n2)c1` [Compound I-88, 5-Cyano-N2-{3-[1-N-isopropyl-(tetrazol-5-yl)]}phenyl-N4-(1,2,2,6,6-pentamethylpiperidin-4-yl)-2,4-pyrimidinediamine], which IC50 is on record?
Answer: < 250 nM

Question: Which IC50 does the source give for `COc1ccc(Nc2ncc(F)c(NC3CC(C)(C)NC(C)(C)C3)n2)cc1-n1c(C)ccc1C` [Compound I-93, N2-[3-(2,5-Dimethyl-pyrrol-1-yl)-4-methoxy]phenyl-5-fluoro-N4-(2,2,6,6-tetramethylpiperidin-4-yl)-2,4-pyrimidinediamine] here?
Answer: < 250 nM

Question: With `CN1C(C)(C)CC(Nc2nc(Nc3cccc(-c4nnnn4C4CC4)c3)ncc2C#N)CC1(C)C` [Compound I-94, 5-Cyano-N2-{3-[1-N-cyclopropyl-(tetrazol-5-yl)]}phenyl-N4-(1,2,2,6,6-pentamethylpiperidin-4-yl)-2,4-pyrimidinediamine] as the compound, how does the IC50 read?
Answer: < 250 nM

Question: For `CC1(C)CC(Nc2nc(Nc3cccc(-c4nnnn4C4CC4)c3)ncc2C#N)CC(C)(C)N1` [Compound I-95, 5-Cyano-N2-{3-[1-N-cyclopropyl-(tetrazol-5-yl)]}phenyl-N4-(2,2,6,6-tetramethylpiperidin-4-yl)-2,4-pyrimidinediamine], which IC50 is on record?
Answer: 250 to 500 nM
